Several values for one entry are separate records, joined by “and”; a condition that tells them apart may be missing. Equal entries are not always repeated.
Experiment: Pharmacokinetic parameters of GP1707D07 (HPLC-MS/MS, non-compartmental) in the GP681-itraconazole drug-drug interaction study
Type: in vivo, healthy Chinese subjects
Procedure: This single-center, open-label, self-controlled, fixed-sequence study, sponsored by Qingfeng Pharmaceutical Group Co., Ltd., was conducted at a single clinical research site in the China–Japan Friendship Hospital (Beijing, China). Each subject received the following treatment: Suraxavir Marboxil (GP681) 20 mg in the fasted state on day 1 and day 26. Itraconazole capsules (Sporanox®: Xi’an Yangsen Pharmaceutical Co., Ltd., China) 0.2 g twice daily (BID, bis in die) on day 22. Itraconazole 0.2 g daily from day 23 to day 36 [including day 26, when itraconazole was co-administrated with Suraxavir Marboxil (GP681)]. The washout period is 21 days (Figure 2). It should be noted that in the following sections, when discussing the PK profile, this study was divided into Period 1 (Suraxavir Marboxil (GP681) monotherapy, from day −1 to day 12), and Period 2 (Suraxavir Marboxil (GP681)-itraconazole co-administration, from day 21 to day 36). When discussion the safety profile, this study was divided into Stage 1 (Suraxavir Marboxil (GP681) monotherapy stage, from day 1 to day 21), Stage 2 (itraconazole monotherapy stage, from day 22 to day 25), and Stage 3 (Suraxavir Marboxil (GP681)-itraconazole co-administration stage, from d 26 to d 36).
Blood samples were collected at the following time points: pre–dose, 0.5, 1, 2, 3, 4, 5, 6, 8, 12, 24, 36, 48, 72, 120, 168, and 264 h post-dose on day 1 and day 26. In addition, a blood sample were collected before dosing on day 1 for genetic polymorphism assessment.
A validated high-performance liquid chromatography-tandem mass spectrometry (HPLC-MS/MS) method was used to determine plasma concentrations of Suraxavir Marboxil (GP681) and its active metabolite GP1707D07 at different times, with the quantification range of 0.3/0.3–300/300 ng/mL for Suraxavir Marboxil (GP681) and GP1707D07. The lower limit of quantification (LLOQ) for both compounds was 0.300 ng/mL. Phoenix® WinNonlin® 8.3 was used to estimate and analyze the pharmacokinetic parameters of non-compartmental model from plasma concentration data. Pharmacokinetic parameters included: maximum plasma concentration (Cmax), area under the plasma concentration-time curve extrapolated from time zero to infinity (AUC0- ∞ ), time to Cmax (Tmax), half-life (t1/2), λz, AUC_%Extrap, Vz/F, CL/F, and mean residence time (MRT).
Statistical analysis was performed using SAS (version 9.4 or above) software programming. Pharmacokinetic concentration analysis was based on Pharmacokinetic Analysis Concentration Set (PKCS). Individual and mean concentrations (mean ± SD) were plotted against planned blood sampling time points for the analyte on linear and semi-log scales. Pharmacokinetic parameter analysis was based on Pharmacokinetic Analysis Parameter Set (PKPS). Drug interaction analysis was based on Drug Interaction Set (DIS). The geometric mean ratios and their 90% confidence intervals of pharmacokinetic parameters Cmax, AUC0-t, and AUC0- ∞ under Suraxavir Marboxil (GP681) single dose and Suraxavir Marboxil (GP681)-itraconazole co-administration conditions were calculated after natural logarithm transformation, using a linear mixed effects model with subjects as random effects and treatment (combined/single) as fixed effects.
1.3 Pharmacokinetic Sample Collection and Processing: Pharmacokinetic Analysis: Approximately 4 mL of blood is collected each time into a tube containing sodium fluoride/potassium oxalate as an anticoagulant. The tube is then placed upright in an ice-water bath. The plasma samples are separated by centrifugation for the detection of GP681/GP1707D07 blood drug concentrations. Both sample collection and processing are conducted under white light conditions. […]

[1] = GP681 + itraconazole vs GP681 alone, N=12
[2] = Period 1, GP681 20 mg monotherapy, geometric mean, N=12
[3] = Period 1, GP681 20 mg monotherapy, individual subjects
[4] = Period 1, GP681 20 mg monotherapy, mean, N=12
[5] = Period 1, GP681 20 mg monotherapy, median, N=12
[6] = Period 2, GP681 20 mg + itraconazole, geometric mean, N=12

O=C1c2c(O)c(=O)ccn2N([C@@H]2c3ccccc3SCc3c2ccc(F)c3F)[C@@H]2COC3(CC3)CN12 [GP1707D07]
AUC0-t: point estimate of geometric mean ratio (90% CI) Period 2/Period 1 [1]: 215.2% and 215.2 (170.7, 271.3) %
AUC0-∞: point estimate of geometric mean ratio (90% CI) Period 2/Period 1 [1]: 255.4% and 255.4 (204.5, 319.0) %
Cmax: point estimate of geometric mean ratio (90% CI) Period 2/Period 1 [1]: 137.7% and 137.7 (98.5, 192.3) %
AUC0-t [2]: 955.800 ng·h/mL
AUC_%Extrap [2]: 7.117%
CL/F [2]: 19.255 L/h
Cmax [2]: 16.0 ng/mL and 16.0070 ng/mL
MRT0-t [2]: 66.790 h
MRT0-∞ [2]: 87.2 h and 87.218 h
Tmax [2]: 3.7 h
Vz/F [2]: 1799.125 L
t1/2 [2]: 64.8 h and 64.764 h
λz [2]: 0.0107 h⁻¹
AUC0-t [3]: 1770.18 ng·h/mL and 1069.77 ng·h/mL and 1199.27 ng·h/mL and 602.25 ng·h/mL and 1158.79 ng·h/mL and 728.18 ng·h/mL and 1487.97 ng·h/mL and 759.35 ng·h/mL and 1247.30 ng·h/mL and 1364.54 ng·h/mL and 354.04 ng·h/mL and 739.81 ng·h/mL and 1069.8 ng·h/mL and 1199.3 ng·h/mL and 602.3 ng·h/mL and 1158.8 ng·h/mL and 728.2 ng·h/mL and 1488.0 ng·h/mL and 759.4 ng·h/mL and 1364.5 ng·h/mL and 354.0 ng·h/mL and 739.8 ng·h/mL and 1770.2 ng·h/mL
AUC0-∞ [3]: 1874.52 ng·h/mL and 1171.14 ng·h/mL and 1273.75 ng·h/mL and 689.41 ng·h/mL and 1290.37 ng·h/mL and 801.51 ng·h/mL and 1650.91 ng·h/mL and 781.02 ng·h/mL and 1310.49 ng·h/mL and 1409.63 ng·h/mL and 407.77 ng·h/mL and 814.16 ng·h/mL
AUC_%Extrap [3]: 5.57% and 8.66% and 5.85% and 12.64% and 10.20% and 9.15% and 9.87% and 2.78% and 4.82% and 3.20% and 13.18% and 9.13%
CL/F [3]: 10.67 L/h and 17.08 L/h and 15.70 L/h and 29.01 L/h and 15.50 L/h and 24.95 L/h and 12.11 L/h and 25.61 L/h and 15.26 L/h and 14.19 L/h and 49.05 L/h and 24.57 L/h
Cmax [3]: 44.439 ng/mL and 17.988 ng/mL and 26.933 ng/mL and 7.24 ng/mL and 15.539 ng/mL and 12.018 ng/mL and 25.999 ng/mL and 16.03 ng/mL and 20.468 ng/mL and 30.14 ng/mL and 3.382 ng/mL and 11.179 ng/mL and 18.0 ng/mL and 26.9 ng/mL and 7.2 ng/mL and 15.5 ng/mL and 12.0 ng/mL and 26.0 ng/mL and 16.0 ng/mL and 20.5 ng/mL and 30.1 ng/mL and 3.4 ng/mL and 11.2 ng/mL and 44.4 ng/mL
MRT0-t [3]: 61.44 h and 71.79 h and 62.61 h and 74.73 h and 74.78 h and 69.62 h and 63.68 h and 57.28 h and 63.69 h and 56.39 h and 80.89 h and 69.22 h
MRT0-∞ [3]: 75.90 h and 95.15 h and 78.26 h and 108.96 h and 102.37 h and 94.31 h and 93.23 h and 64.34 h and 75.97 h and 64.54 h and 117.49 h and 94.32 h
Tmax [3]: 3 h and 6 h and 2 h and 5 h and 4 h
Vz/F [3]: 857.04 L and 1725.92 L and 1402.22 L and 3031.63 L and 1619.87 L and 2462.69 L and 1483.10 L and 1801.98 L and 1183.17 L and 996.59 L and 5767.31 L and 2522.77 L
t1/2 [3]: 55.68 h and 70.05 h and 61.90 h and 72.43 h and 72.44 h and 68.41 h and 84.86 h and 48.78 h and 53.74 h and 48.69 h and 81.51 h and 71.18 h
λz [3]: 0.012 h⁻¹ and 0.010 h⁻¹ and 0.011 h⁻¹ and 0.008 h⁻¹ and 0.014 h⁻¹ and 0.013 h⁻¹ and 0.009 h⁻¹
AUC_%Extrap [4]: 7.9 (3.4) % and 7.919%
CL/F [4]: 21.1 (10.6) L/h and 21.141 L/h
Cmax [4]: 19.3 (11.2) ng/mL and 19.2796 ng/mL
MRT0-t [4]: 67.2 (7.5) h and 67.176 h
MRT0-∞ [4]: 88.7 (17.0) h and 88.737 h
Tmax [4]: 4.0 h
Vz/F [4]: 2071.2 (1,333.0) L and 2071.190 L
t1/2 [4]: 65.8 (12.1) h and 65.805 h
λz [4]: 0.011 (0.0021) h-1 and 0.0109 h-1
Tmax (Period 1, GP681 20 mg monotherapy, median (range), N=12): 4.0 (2.0–6.0) h
AUC0-t [5]: 1114.281 ng·h/mL
AUC0-∞ [5]: 1222.445 ng·h/mL
AUC_%Extrap [5]: 8.894%
CL/F [5]: 16.390 L/h
Cmax [5]: 17.0090 ng/mL
MRT0-t [5]: 66.454 h
MRT0-∞ [5]: 93.771 h
Vz/F [5]: 1672.897 L
t1/2 [5]: 69.231 h
λz [5]: 0.0100 h⁻¹
AUC0-t [6]: 2057.0 ng·h/mL and 2057.031 ng·h/mL
AUC_%Extrap [6]: 21.847%
CL/F [6]: 7.539 L/h
Cmax [6]: 22.0 ng/mL and 22.0359 ng/mL

From article PMC12022903, “Evaluation of drug-drug interaction between Suraxavir Marboxil (GP681) and itraconazole, and assessment of the impact of gene polymorphism” (Frontiers in Pharmacology, 2025)
